This is an account of results in PubChem BioAssay AID179 (DTP/NCI, 2004).

The assay relates to CEM cells HIV-1 protection, formazan growth assay. The assay is described as follows: NCI AIDS Antiviral Assay. The settings on record: for IC50: measured here: growth of uninfected CEM cells. Summed up:
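Human CEM cells, uninfected and HIV-1-infected, exposed to five drug concentrations; growth measured by soluble formazan assay and scored as percent protection from infection, with protecting compounds retested.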

Activity calls are given as the source filed them.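 How the source made its calls: active means compounds giving half or more protection of infected cells from virus-caused growth loss, again on retest; inactive means the rest.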 Where a SMILES comes first, the peptide text is derived from it. The star is where a group is joined. Cbz = O=C(OCc1ccccc1)*; CH2Cl = ClC* Where only a bound is given, the exact number is not on record here.

Regarding `Cc1ccc(N=Nc2c(C)c(C#N)c(=S)n(C3OC(CO)C(O)C(O)C3O)c2-c2ccccc2)cc1` (centres undefined), the EC50 (usually the midpoint of the concentration-response curve) was more than 200 µM and the IC50 (in general, the concentration at which inhibition is half-maximal) was 18.6 µM. Taken in the same sequence, the figures for `CC(C)=Nn1cnc2c1NC(C)(C)N=C2C(N)=O` were more than 200 µM and more than 200 µM. For `COc1ccc(C2OC(c3ccncc3)=NN2C)cc1F` (centres undefined), in that order: more than 200 µM and more than 100 µM. For `N/C(CCSCCSCC/C(N)=N\O)=N\O`, in that order: more than 200 µM and more than 200 µM. Consider `COc1c(C)c2c(c3c1c(=O)c1ccccc1n3C)C=CC(C)(C)O2`, for which the EC50 was more than 15.5 µM and the IC50 came out at 11 µM. Consider `O=C1C(c2ccccc2)=[N+]([O-])c2cc([N+](=O)[O-])ccc21`, for which the result was inactive.

Regarding `Cc1ccc(S(=O)(=O)N/N=C2\CCC3(O)CC2(C)CCC2C3CC2(C)C)cc1` (centres undefined), the EC50 was 28.2 µM and the IC50 worked out at 51.3 µM. For `CC1=C(C(=O)NNC(=O)Cc2ccccc2)CC(C(=O)NNC(=O)Cc2ccccc2)=C(C)N1`, in that order: more than 200 µM and 36.3 µM.

With `CCc1c2c(c(C)n1C)C(c1ccccc1)=NCC(=O)N2`, the EC50 is more than 468 µM and the IC50 worked out at 295 µM. Taken in the same sequence, the figures for `COC(=O)C1C(C(=O)OC)C1(Br)CBr` (centres undefined) were more than 200 µM and 5.89 µM. Taken in the same sequence, the figures for `O=C(O)c1cccc(S(=O)(=O)c2ccccc2)c1` were more than 200 µM and more than 200 µM. As for `NNC(=O)NNC(=O)NN`, the EC50 is more than 200 µM and the half-maximal inhibitory concentration (IC50) was more than 200 µM. For the molecule `O=S(=O)(F)c1ccc(C[P+](c2ccccc2)(c2ccccc2)c2ccccc2)cc1`, the EC50 is more than 200 µM and the IC50 was more than 100 µM. Regarding `COC(=O)C(C)(C)OCc1ccc(C2NC(=O)N(c3cccc(Cl)c3)C(=O)N2c2cccc(Cl)c2)cc1` (centres undefined), the EC50 is more than 200 µM and the IC50 came out at 24 µM.

For `Cc1ccc(NC(=O)c2[nH]c(=S)nc(N)c2-c2ccccc2C)cc1C`, the EC50 is more than 692 µM and the IC50 was more than 692 µM. `N#Cc1cnc(-n2[nH]c3c(c2=O)CCCC3)[nH]c1=O`: the result was inactive. Take `CC(=O)OC1COC(n2c(=S)n(-c3ccccc3)c(=O)c3ccccc32)C(OC(C)=O)C1OC(C)=O` (centres undefined): the EC50 was more than 36.3 µM and the IC50 was more than 36.3 µM. Take `NC(Cc1ccc[se]1)C(=O)O` (centres undefined): the EC50 is more than 200 µM and the IC50 is more than 200 µM. As for `Cc1ccc(S(=O)(=O)/N=S(\C)c2cccc(Cl)c2)cc1` (centres undefined), the EC50 is more than 200 µM and the half-inhibitory concentration (IC50) worked out at 170 µM. Taken in the same sequence, the figures for `O=C(Nc1ccc(/C=C/c2ccc(NC(=O)c3cc(S(=O)(=O)O)c4cccnc4c3O)cc2S(=O)(=O)O)c(S(=O)(=O)O)c1)c1cc(S(=O)(=O)O)c2cccnc2c1O` were 4.47 µM and 148 µM. Taken in the same sequence, the figures for `CC(C)(C)c1cc(C2COC(c3cc(C(C)(C)C)c(O)c(C(C)(C)C)c3)CO2)cc(C(C)(C)C)c1O` (centres undefined) were more than 50.1 µM and more than 50.1 µM.

With `Cc1cc(C)nc(NS(=O)(=O)c2ccc(NC(=O)c3cccnc3Nc3cccc(Cl)c3)cc2)n1`, the outcome was inactive. `O=c1[nH]c(O)c(/C=N/C(=S)Nc2ccc(S(=O)(=O)Nc3nccs3)cc2)c(=O)[nH]1`: the EC50 is more than 200 µM and the IC50 was more than 200 µM. For the molecule `Cc1ccc2oc(=O)c(C#N)c(/C=C/c3cccc4ccccc34)c2c1`, the EC50 is more than 200 µM and the IC50 is more than 200 µM. For `O=C1NC(N2CCOCC2)=N/C1=C\c1ccccc1`, the EC50 is more than 200 µM and the concentration for half-maximal inhibition (IC50) was more than 200 µM. As to `CCOC(=O)CN1C(=O)c2c(c(C)n(-c3ccccc3)c2C)C1=O`, the EC50 was more than 200 µM and the IC50 was more than 200 µM. Take `CCOC(=O)CNC(=O)C(C)NC(=O)C(NC(=O)CC(c1ncc[nH]1)c1ncc[nH]1)C(C)CC` (centres undefined): the EC50 is more than 100 µM and the concentration for half-maximal inhibition (IC50) was more than 100 µM. Take `CCOC(=O)NC(=O)c1cn(CC(=O)NCC(=O)NCC(=O)NCCCN2CCN(CCCNC(=O)CNC(=O)CNC(=O)Cn3cc(C(=O)NC(=O)OCC)c(=O)[nH]c3=O)CC2)c(=O)[nH]c1=O`: the outcome was inactive. `COc1c(Br)c(=O)n(C)c(=O)n1C`: the EC50 was more than 200 µM and the IC50 is more than 200 µM. Turning to `CC(=O)Nc1ccc([As](=O)(O)O)cc1C(=O)O`, the EC50 was more than 200 µM and the IC50 is more than 200 µM.

For `S=C1C(CCCOCc2ccccc2)C2CCCC23CC2(CCN13)OCCS2` (centres undefined), the EC50 was more than 200 µM and the IC50 is 39.8 µM. Taken in the same sequence, the figures for `COC(=O)c1ccc(OCCn2nnc(C(=O)NN)c2C(=O)NN)cc1` were more than 100 µM and more than 100 µM.

Take `CC(=O)NS(=O)(=O)c1ccc(NC(=O)c2ccccc2SC(=O)CCCCBr)cc1`: the half-maximal effective concentration (EC50) is 12.3 µM and the IC50 was determined as 148 µM. Taken in the same sequence, the figures for `CC1OC(OC2C(OC(=O)[C@]34CCC(C)(C)CC3C3=CCC5[C@@]6(C)C[C@H](O)[C@H](OC7OC(CO)C(O)C(O)C7N)[C@@](C)(C(=O)O)C6CC[C@@]5(C)C3(C)CC4)OCC(O)C2O)C(O)C(O)C1OC1OCC(O)C(O)C1O` (some centres undefined) were more than 123 µM and more than 123 µM. `CCOC(=O)C(Sc1ccccc1)c1c(OC)cc(=O)oc1/C=[N+](/[O-])c1ccc(N(C)C)cc1` (centres undefined): the result was inactive. As to `N/C1=C/C(=O)NC(=O)c2c(c3ccccc3oc2=O)C1`, the EC50 was more than 200 µM and the 50% inhibitory concentration (IC50) was more than 200 µM. Consider `O=C1CCC(=O)N1N1C(=O)CCC1=O`, for which the EC50 was more than 200 µM and the IC50 was more than 200 µM. For the molecule `O=C(NCc1ccc(O)cc1O)c1ccccc1O`, the EC50 was more than 200 µM and the IC50 was 138 µM. Taken in the same sequence, the figures for `CCCCCCCCCO/N=C\c1c2c(O)c3c(O)c(C)c4c(c3c1O)C(=O)C(C)(O/C=C\C(OC)C(C)C(OC(C)=O)C(C)C(O)C(C)C(O)C(C)/C=C\C=C(\C)C(=O)N2)O4` (centres undefined) were more than 200 µM and 3.16 µM.

Consider `Cc1c(O)nc(CO)[nH]c1=O`, for which the EC50 was more than 200 µM and the IC50 was more than 200 µM. As to `Nc1ncnc2c1ncn2C1CC(CO)C(CO)O1` (centres undefined), the result was inactive. With `COc1ccc(/C=C2\CCCC(CN(C)C)C2=O)cc1` (centres undefined), the EC50 was more than 200 µM and the concentration for half-maximal inhibition (IC50) was 1.02 µM. For `O=C(OC12CC3CC(CC(C3)C1)C2)c1ccc(NCc2cc(O)ccc2O)cc1`, in that order: more than 20 µM and 0.955 µM. Taken in the same sequence, the figures for `COc1cc(COC(=O)N2CC=CC2C(=O)O)c([N+](=O)[O-])cc1OC` (centres undefined) were more than 708 µM and more than 708 µM.

With `C1=Cc2ccccc2/C1=C/c1cc2c3c(c1)CCCN3CCC2`, the EC50 is more than 43.7 µM and the IC50 is more than 43.7 µM. `COP(=O)(OC)OC=C(Cl)Cl`: the EC50 was more than 200 µM and the IC50 is more than 200 µM. Take `COc1cccc(/C=N/[N-]C(N)=O)c1[O-].[Cu+2].c1ccncc1`: the EC50 is more than 5.75 µM and the IC50 was more than 5.75 µM. In the case of `CC(O)C1(CNc2cc(Cl)nc(N)n2)CCC1` (centres undefined), the EC50 is more than 200 µM and the 50% inhibitory concentration (IC50) came to 182 µM. For `COc1ccccc1C1C=NNC1` (centres undefined), in that order: more than 200 µM and 107 µM.

On to `NC(=O)C(=CNC(=S)N=Nc1c(O)[nH]c2ccccc12)C(N)=O`, for which the EC50 is more than 200 µM and the 50% inhibitory concentration (IC50) worked out at 166 µM. Taken in the same sequence, the figures for `COc1cc(C2c3c(oc4ccccc4c3=O)Oc3oc4ccccc4c(=O)c32)cc(OC)c1O` were more than 5.75 µM and more than 5.75 µM. Taken in the same sequence, the figures for `CC(C)CC(NC(=O)OCc1ccccc1)C(=O)NC(Cc1ccccc1)C(=O)CCl` (stereo not drawn) (Cbz-Leu-Phe-CH2Cl; configuration not given here) were more than 20 µM and 1 µM. Taken in the same sequence, the figures for `Cn1c2ccc([N+](=O)[O-])cc2c(=O)n1Cc1ccccc1F` were more than 200 µM and 58.9 µM. In the case of `CCOC(=O)c1sc(C(=O)O)cc1-c1cccs1`, the EC50 was 234 µM and the IC50 came to 501 µM.

Regarding `Cc1ccc(-c2cc(=O)c3cc(C)c(C)c(C(=O)O)c3o2)cc1N`, the result was inactive. Regarding `COCOC1CCCC[C@@]1(OCCOCCO[C@@]1(c2ccccc2)CCCC[C@H]1OCOC)c1ccccc1` (some centres undefined), the EC50 was more than 5.01 µM and the IC50 is more than 5.01 µM. Take `CC1(C)OC(=O)C(=Cc2ccc(C#N)cc2)C(=O)O1`: the EC50 was more than 513 µM and the IC50 was 2.29 µM. For `Nc1ccc(Sc2nnc(N)s2)cc1`, in that order: more than 224 µM and more than 224 µM. Taken in the same sequence, the figures for `COc1ccccc1N1CCCSC1=Nc1ccccc1` were 81.3 µM and 214 µM.

As for `Cc1cc(C)nc(NS(=O)(=O)c2ccc(NC(=O)c3cccc4c(Nc5ccc(S(=O)(=O)Nc6nc(C)cc(C)n6)cc5)c5ccccc5nc34)cc2)n1`, the EC50 was more than 33.9 µM and the IC50 turned out to be 30.2 µM. Turning to `CC1=NN(c2ccccc2)C(=O)C1N=Nc1ccc(S(=O)(=O)Nc2occ(C)c2C)cc1` (centres undefined), the outcome was inactive. Regarding `C[N+]1=C2[B-](C(C)(C)C)=[N+](C(C)(C)C)[B-]2(C(C)(C)C)[N+](C)=C2[B-](C(C)(C)C)=[N+](C(C)(C)C)[B-]21C(C)(C)C` (centres undefined), the EC50 is more than 50.1 µM and the IC50 was more than 50.1 µM. Regarding `O=C1c2ccccc2C(=O)c2sc(Nc3ccccc3Cl)nc21`, the EC50 was more than 7.94 µM and the IC50 is more than 7.94 µM. Turning to `CN(O)C(=O)c1ccccc1`, the EC50 was more than 1660 µM and the IC50 was determined as 1380 µM.

Consider `O=C1CN(c2ccccc2)C(=O)C1C(=O)Nc1ccc(Cl)c(Cl)c1` (centres undefined), for which the EC50 is more than 3.98 µM and the half-inhibitory concentration (IC50) came to 3.89 µM. For `CC(=O)NC(N)=NC#N`, in that order: more than 2000 µM and more than 2000 µM. In the case of `O=c1c2ccc3cccc4c(=O)cc(c5ccccc15)-c2c34`, the result was inactive. Consider `NCCN.NCCN.NCCN.O=C([O-])[C@@H](O)[C@@H](O)C(=O)[O-].[Cl-].[Co+3]`, for which the EC50 was more than 100 µM and the IC50 is more than 100 µM.

Regarding `CC(=O)O[C@H]1C(N(C)C(=O)c2ccccc2)CC[C@]2(C)C3CC[C@@]4(C)C(CC(O)[C@@H]4C(C)N(C)C)[C@@H]3CCC12` (some centres undefined), the EC50 was more than 25.1 µM and the IC50 was more than 25.1 µM.
